The source of these data is ChEMBL document CHEMBL1201862, “PubChem BioAssay data set” (2004).

The target in test [1] is Induced myeloid leukemia cell differentiation protein Mcl-1 (Homo sapiens, UniProt Q07820). It counts as functional.
Test [2] in a line: blockers of HIV-1 envelope-mediated cell-cell fusion – cherry-pick, dose response (AID 652057). It counts as functional, cell-based.
Test [3] in a line: HIV-1 AD8 envelope cell-cell fusion blockers – cherry-pick, dose response (AID 652062).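 Further: luciferase signal from cell-cell fusion driven by HIV-1 clade B AD8 Env; potency is for inhibitors of fusion seen as a drop in luminescence.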 Format: functional, cell-based.
Test [4] can be described thus: blockers of HIV-1 ZM109 envelope-driven cell-cell fusion – HeLa effector, CEM target cells, luciferase, cherry-pick, dose response (AID 652058).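 Further: luciferase signal from HIV-1 Env mediated cell-cell fusion of effector and target cells.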 Format: functional, cell-based.
A short description of test [5]: reduction of Shn3 3'UTR-driven luciferase in osteoblasts – cell-based, Clone20 osteoblasts, firefly luciferase, cherry-picked, dose response (AID 624132).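 Further: firefly luciferase luminescence from reporter carrying the Shn3 3'UTR in osteoblasts.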 Format: functional.
The nature of test [6]: non-specific 3'UTR reporter inhibition in Clone20-Shn3RL – cell-based, Renilla luciferase, cherry-picked, counter-screen for Shn3 inhibitor project, dose response (AID 624133). It counts as functional. On the technique in general: The purpose of a counterscreen is to sort out artefacts and off-target activity.
Test [7] in a line: loss of viability in HepG2 cells – cell-based, CellTiter-Glo, cherry-picked, cytotoxicity control for Shn3 inhibitor project, dose response (AID 624134). Format: functional. (ATP-based viability assays read luminescence as a measure of living cells.)
The nature of test [8]: intracellular Trypanosoma cruzi inhibitors in host cells – cell-based, plate reader, cherry-pick samples, set 3, dose response (AID 651818).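 Further: compounds incubated with infected cells for about four days.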 Format: functional.
A further test has as its system H9c2. The test is described as follows: cells. It counts as functional, cell-based. The note with it: Rattus norvegicus, H9c2, Myocardium.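 Further: confirmatory concentration-response retest of ultra-high-throughput screening hits for modulation of myocardial damage; cell death induced by hydrogen peroxide oxidative stress; compound pretreatment for 60 min then peroxide exposure for 2 h; potency is for protecting the cells against peroxide damage rather than for killing them.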
Test [9] addresses FAD-linked sulfhydryl oxidase ALR (Homo sapiens, UniProt P55789). The test is described as follows: ALR-catalysed DTT oxidation blockers – biochemical, H2O2 detection, luminescence, cherry-pick, dose response (AID 493248).
A further test concerns INS1. The test is described as follows: INS-1E survival protection against cytokine death – cell-based, luminescence, retest, dose response (AID 449756).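 Further: cell death triggered by IL-1 beta plus TNF-alpha plus IFN-gamma mixture; protective hits raise ATP signal compared with cytokine alone wells.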 It counts as functional. The note with it: Rattus norvegicus.
A further test deals with Streptococcus. The test is described as follows: GAS UMAA2166 growth inhibition – luminescence, BacTiterGlo, counter-screen for streptokinase expression inhibitor project, dose response (AID 1915).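 Further: potency for reduction of bacterial viability or growth.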 Format: functional, organism-based.
A short description of test [10]: luciferase reporter signal suppression in cells – H4 neuroglioma cells, luminescence, dose response (AID 1990). Format: functional, cell-based. (In a reporter assay the amount or activity of a reporter protein is the signal.)
A short description of test [11]: NIH3T3 cell viability loss – ATP luminescence, mouse fibroblasts, counter-screen, dose response (AID 2010).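 Further: cells exposed to compound for about 90 hours before reading.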 Format: functional, cell-based.
Another test addresses T1, Streptokinase A (Streptococcus pyogenes serotype M1, UniProt P10520).
T1 sequence (P10520 whole entry): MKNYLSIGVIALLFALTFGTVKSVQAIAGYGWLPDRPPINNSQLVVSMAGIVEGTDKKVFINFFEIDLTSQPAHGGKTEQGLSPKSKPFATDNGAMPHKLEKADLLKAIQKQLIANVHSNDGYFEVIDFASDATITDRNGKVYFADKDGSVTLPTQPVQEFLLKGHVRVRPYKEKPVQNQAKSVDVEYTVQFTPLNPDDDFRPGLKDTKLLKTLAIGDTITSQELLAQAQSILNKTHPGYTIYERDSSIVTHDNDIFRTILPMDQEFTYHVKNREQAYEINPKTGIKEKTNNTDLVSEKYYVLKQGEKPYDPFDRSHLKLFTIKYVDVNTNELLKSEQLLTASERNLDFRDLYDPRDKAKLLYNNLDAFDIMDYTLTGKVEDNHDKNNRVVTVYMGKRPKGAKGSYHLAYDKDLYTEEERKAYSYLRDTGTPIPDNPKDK
The test is described as follows: viability-normalized secreted streptokinase activity reduction – plasminogen activation absorbance, OD405, dose response (AID 1914).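 Further: secreted streptokinase activity via plasminogen activation per viability signal from cell pellet.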 It counts as functional, Streptococcus pyogenes M1 GAS.

Test [12] can be described thus: Trypanosoma cruzi growth suppression in host cells – NIH3T3 host cells, beta-gal luminescence, confirmation (AID 2044).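 Further: intracellular parasites grown in NIH/3T3 mouse fibroblasts as host cells; luminescent beta-galactosidase reporter signal from transgenic T. cruzi replicating inside host cells; inhibitors lower the luminescence signal.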 Format: functional, cell-based.
The nature of test [13]: Luminescence Cell-Based Dose Response HTS to Identify Inhibitors of 5'UTR Stem-Loop Driven Prion Protein mRNA Translation in H4 Neuroglioblastoma Cells. [Related pubchem assays: 1827 (Project Summary), 1813 (Primary HTS)]. Format: functional.
A short description of test [14]: alpha-synuclein stem-loop luciferase translation blockers – H4 neuroglioma cells, luminescence, confirmation (AID 1988). It counts as functional, cell-based.
Test [15] relates to Streptococcus sp. 'group A'. The test is described as follows: Streptococcus pyogenes SK(-)GAS viability under kanamycin – luminescence, BacTiterGlo, confirmation, counter-screen for streptokinase expression inhibitor project, dose response (AID 1900). Format: functional, organism-based.
For the next test, the target named is Cytochrome P450 2C19 (Homo sapiens, UniProt P33261). The test is described as follows: Cytochrome panel assay with activity outcomes. Panel member name: p450-cyp2c19 Compounds with AC50 equal or less than 10 uM are considered active. Particulars: read-out: AC50. Format: functional.
In another test the target is Cytochrome P450 3A4 (Homo sapiens, UniProt P08684).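 Further: CYP3A4 tested as one member of a cytochrome P450 panel screen.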
Another test concerns the target Cytochrome P450 2C9 (Homo sapiens, UniProt P11712).
For the next test, the target named is T2, Cytochrome P450 1A2 (Homo sapiens, UniProt P05177).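 Further: PubChem cytochrome P450 panel assay, CYP1A2 panel member.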
T2 sequence (P05177 whole entry): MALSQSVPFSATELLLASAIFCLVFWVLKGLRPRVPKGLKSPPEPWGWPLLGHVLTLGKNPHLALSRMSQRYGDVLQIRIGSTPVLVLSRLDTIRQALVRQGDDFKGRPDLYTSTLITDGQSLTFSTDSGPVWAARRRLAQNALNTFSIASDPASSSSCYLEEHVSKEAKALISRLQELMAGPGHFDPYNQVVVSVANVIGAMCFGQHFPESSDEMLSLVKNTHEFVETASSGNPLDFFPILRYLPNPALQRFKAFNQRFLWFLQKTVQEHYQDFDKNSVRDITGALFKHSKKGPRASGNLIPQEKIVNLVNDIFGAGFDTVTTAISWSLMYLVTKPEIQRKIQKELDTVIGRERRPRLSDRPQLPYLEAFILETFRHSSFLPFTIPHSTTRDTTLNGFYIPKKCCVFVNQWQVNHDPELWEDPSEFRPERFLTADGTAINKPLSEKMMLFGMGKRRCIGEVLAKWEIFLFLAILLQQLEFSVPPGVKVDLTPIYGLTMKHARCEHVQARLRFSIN

A further test has as its target Nonstructural protein 1 (Influenza A virus, UniProt Q194T2). It counts as functional, Influenza A virus (A/California/07/2009(H1N1)).

The structures appear in SMILES notation. Active and inactive are the calls of the source.

FAD-linked sulfhydryl oxidase ALR, sequence (P55789 whole entry): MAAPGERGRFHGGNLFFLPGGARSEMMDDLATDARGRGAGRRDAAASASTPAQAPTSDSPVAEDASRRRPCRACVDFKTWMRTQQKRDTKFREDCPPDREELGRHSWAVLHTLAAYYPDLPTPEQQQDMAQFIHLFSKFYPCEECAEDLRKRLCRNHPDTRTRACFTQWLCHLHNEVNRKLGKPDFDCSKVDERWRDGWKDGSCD
Induced myeloid leukemia cell differentiation protein Mcl-1, sequence (Q07820 whole entry, the tested form may be a part): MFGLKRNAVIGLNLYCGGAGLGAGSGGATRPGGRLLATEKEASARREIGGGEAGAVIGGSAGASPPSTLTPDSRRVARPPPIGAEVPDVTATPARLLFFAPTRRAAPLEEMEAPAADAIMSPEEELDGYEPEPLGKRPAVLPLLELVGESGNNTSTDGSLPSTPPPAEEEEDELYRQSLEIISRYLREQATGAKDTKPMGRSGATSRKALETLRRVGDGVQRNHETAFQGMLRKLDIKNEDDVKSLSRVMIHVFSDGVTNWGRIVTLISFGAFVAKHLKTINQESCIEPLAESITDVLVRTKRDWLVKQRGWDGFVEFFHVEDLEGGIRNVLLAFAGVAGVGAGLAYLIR
Cytochrome P450 2C19, sequence (P33261 whole entry): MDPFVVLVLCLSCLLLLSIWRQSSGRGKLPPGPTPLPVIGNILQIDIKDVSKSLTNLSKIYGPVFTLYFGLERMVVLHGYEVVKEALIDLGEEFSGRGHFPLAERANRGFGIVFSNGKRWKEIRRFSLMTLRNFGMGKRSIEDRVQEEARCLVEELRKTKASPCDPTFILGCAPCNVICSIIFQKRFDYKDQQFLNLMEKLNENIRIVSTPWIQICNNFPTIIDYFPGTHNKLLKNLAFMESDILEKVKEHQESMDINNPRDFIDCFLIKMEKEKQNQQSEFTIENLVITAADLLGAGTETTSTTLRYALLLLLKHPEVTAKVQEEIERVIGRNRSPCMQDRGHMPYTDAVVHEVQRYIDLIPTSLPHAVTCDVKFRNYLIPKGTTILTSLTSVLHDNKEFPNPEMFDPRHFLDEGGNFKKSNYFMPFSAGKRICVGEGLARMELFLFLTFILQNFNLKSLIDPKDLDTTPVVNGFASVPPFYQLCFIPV
Cytochrome P450 3A4, sequence (P08684 whole entry): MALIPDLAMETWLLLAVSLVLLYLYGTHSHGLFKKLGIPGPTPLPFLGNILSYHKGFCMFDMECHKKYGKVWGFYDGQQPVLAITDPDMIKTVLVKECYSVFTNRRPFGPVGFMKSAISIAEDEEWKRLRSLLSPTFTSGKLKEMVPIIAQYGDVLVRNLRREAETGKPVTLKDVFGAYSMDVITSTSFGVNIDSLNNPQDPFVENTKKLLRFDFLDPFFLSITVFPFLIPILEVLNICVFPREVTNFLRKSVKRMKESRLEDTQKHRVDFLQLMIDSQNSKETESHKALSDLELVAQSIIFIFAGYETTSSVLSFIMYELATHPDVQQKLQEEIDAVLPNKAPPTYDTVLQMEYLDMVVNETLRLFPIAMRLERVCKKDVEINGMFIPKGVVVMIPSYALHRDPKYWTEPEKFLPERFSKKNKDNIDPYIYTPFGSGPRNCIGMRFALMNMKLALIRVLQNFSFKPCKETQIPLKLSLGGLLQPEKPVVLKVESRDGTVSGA
Cytochrome P450 2C9, sequence (P11712 whole entry): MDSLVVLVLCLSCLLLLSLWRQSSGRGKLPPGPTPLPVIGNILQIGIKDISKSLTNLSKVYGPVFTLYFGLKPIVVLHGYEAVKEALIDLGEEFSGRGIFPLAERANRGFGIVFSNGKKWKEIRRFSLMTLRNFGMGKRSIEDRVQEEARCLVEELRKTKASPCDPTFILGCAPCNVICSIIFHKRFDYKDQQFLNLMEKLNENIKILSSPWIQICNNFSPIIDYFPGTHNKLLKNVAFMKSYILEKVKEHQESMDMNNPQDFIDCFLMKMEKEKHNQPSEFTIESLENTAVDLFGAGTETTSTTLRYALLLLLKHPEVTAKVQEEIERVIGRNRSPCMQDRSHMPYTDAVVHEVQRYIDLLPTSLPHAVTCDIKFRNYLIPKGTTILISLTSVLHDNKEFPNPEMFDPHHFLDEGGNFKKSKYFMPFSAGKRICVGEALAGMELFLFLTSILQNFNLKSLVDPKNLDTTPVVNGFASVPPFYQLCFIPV
Nonstructural protein 1, sequence (Q194T2 whole entry): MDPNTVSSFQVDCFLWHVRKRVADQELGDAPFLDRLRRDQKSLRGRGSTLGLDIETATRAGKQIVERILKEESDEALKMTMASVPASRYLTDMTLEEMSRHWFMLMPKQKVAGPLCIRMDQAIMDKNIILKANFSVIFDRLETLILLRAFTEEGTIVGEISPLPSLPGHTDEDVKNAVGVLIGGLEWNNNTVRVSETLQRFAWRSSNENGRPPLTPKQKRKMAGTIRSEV

For the molecule `CCN(c1ccc(NC(=O)COC(=O)c2cccs2)cc1)C(C)C`, the IC50 in test [1] was 1.4 µM (not active). Take `COc1ccc([Si](C)(C)[C@@H]2[C@@H](CCO)O[C@]3(C(=O)N4c5c(cc(OC)cc53)C(C)=CC4(C)C)[C@H]2C)cc1`: the AC50 in test [2] is 11.8 µM (active); in [3] it was 16.8 µM (active); in [4], 17.2 µM (active).

Regarding `CC(C)C[C@H]1CNC(=S)N1CC1CCN(CC2CCC(C(C)(C)C)CC2)CC1` (some centres not stated), the AC50 in test [5] is 4.05 µM (active); in test [6] it was 4.48 µM (active); in test [7] it was 21.5 µM (active). In the case of `C[C@@H]1CCCCO[C@@H](CN(C)C(=O)Nc2ccc(C(F)(F)F)cc2)[C@@H](C)CN([C@H](C)CO)C(=O)c2cc(NC(=O)Nc3ccc(F)cc3)ccc2O1`, in [8], the AC50 was 4.68 µM (active). Turning to `O=C1Nc2cnc(Cl)nc2Nc2ccccc21`, the IC50 in the test on H9c2 is 18.7 µM (active). Regarding `CC(=O)N1CCN=C1SCc1cccc(F)c1`, the AC50 in test [9] is 6.74 µM (active).

For the molecule `CS/C(=N\S(=O)(=O)c1ccccc1)c1ccccc1`, the IC50 in the test with H9c2 is > 79 µM (inactive). Consider `C[C@H]1CN([C@@H](C)CO)C(=O)Cc2cc(N(C)C)ccc2O[C@H]1CN(C)Cc1ccc(C(=O)Nc2ccccc2N)cc1`, for which, in test [8], the AC50 was 1.93 µM (active).

On to `COc1cc(C)c(C(=O)CC(=O)c2c(C)cc(OC)cc2C)c(C)c1`, for which the AC50 in the test with INS1 was 8.81 µM (active); in [5] it was 7.4 µM (active); in test [6] it was 21.8 µM (active); in test [7], > 70 µM (inactive). Also, the EC50 in the test with Streptococcus was > 150 µM (not active); in test [10] it was 10.7 µM (active); in test [11] it was 6.5 µM (active); on Streptokinase A it was 68.7 µM (active); in [12] it was 2.67 µM (active); in test [13], 73.2 µM (active). Further, the EC50 was > 120 µM (not active) in [14] and 3.96 µM (active) in [15].

As for `O=S(=O)(Nc1ccc(N2CCCCC2)cc1)c1cccc2cccnc12`, in [9], the AC50 is 0.723 µM (active). On to `C[C@@H]1CN([C@H](C)CO)C(=O)Cc2cc(NC(=O)Nc3ccc(C(F)(F)F)cc3)ccc2O[C@H]1CN(C)Cc1ccc(C(F)(F)F)cc1`, for which the AC50 in [8] was 6.59 µM (active). Take `CCOC(=O)c1c(NC(=O)C2c3ccccc3Oc3ccccc32)sc(C(C)=O)c1C`: the AC50 in test [5] is 4.67 µM (active); in test [6], 13.6 µM (active); in [7], 61.5 µM (active). `CCOC(=O)c1cc2c(=O)n3cccc(C)c3nc2n(CCCOC)/c1=N\C(=O)c1cccnc1`: the IC50 in the test on H9c2 is > 79 µM (inactive).

As to `C[C@H](CO)N1C[C@H](C)[C@H](CN(C)C(=O)Nc2ccc(F)cc2)Oc2ncc(C#Cc3ccc(C(F)(F)F)cc3)cc2C1=O`, the AC50 in test [8] is 2.59 µM (active). Regarding `Cc1nn(Cc2ccc(F)cc2)c2sc(C(=O)Nc3ccc(N4CCOCC4)cc3N3CCOCC3)cc12`, in test [1], the IC50 is listed as 2.73 µM (not active).

For `O=C(Nc1ccc(N2CCCCC2)cc1)c1cccnc1`, in test [9], the AC50 was 21.6 µM (active).

With `CC(=O)c1c(C)[nH]c(C(=O)OCC(=O)Nc2c(C)cccc2C)c1C`, the AC50 in test [3] was 3.02 µM (active); in test [4], 0.745 µM (active). Turning to `Cc1ccc(S(=O)(=O)Nc2ccc3c(c2)CC(=O)N([C@H](C)CO)C[C@@H](C)[C@@H](CN(C)S(=O)(=O)c2ccc(C)cc2)O3)cc1`, the AC50 in test [8] is 4.11 µM (active). For `CCOc1ccc(C(=O)Nc2cccc(-c3nc4cccnc4o3)c2)cc1Cl`, the AC50 on Cytochrome P450 2C19 is 14.1 µM (inconclusive); on Cytochrome P450 3A4 it was 6.31 µM (inconclusive); at Cytochrome P450 2C9, 14.1 µM (inconclusive); on Cytochrome P450 1A2 it was 5.01 µM (inconclusive). Moreover, in the test on H9c2, the IC50 was > 79 µM (inactive).

Regarding `Oc1cc(-c2cccnc2)cc2cccnc12`, the figures for the AC50 in [5], in test [6] and in [7] were 9.27 µM (active), 4.04 µM (active) and 10.9 µM (active), respectively. On Nonstructural protein 1, the IC50 is 15.6 µM (active). Regarding `O=C(NCC(=O)N(Cc1cccs1)C(C(=O)NC1CCCCC1)c1ccco1)c1ccco1` (configuration not stated), the IC50 in the test on H9c2 was 7.48 µM (active). Regarding `C[C@H]1CN([C@@H](C)CO)C(=O)Cc2cc(NC(=O)C3CCCCC3)ccc2O[C@@H]1CN(C)Cc1ccc2c(c1)OCO2`, in test [8], the AC50 was 2.81 µM (active).

With `Cc1nnc2ccc(-c3cccc(NC(=O)c4ccc(Cl)nc4)c3)nn12`, in the test with H9c2, the IC50 was > 79 µM (inactive). Same read-out and setting: as for `CC(=O)NCCNc1nc2c(-c3ccccc3)nnn2c2ccccc12`, the figure is > 79 µM (inactive).

For the molecule `CN(C)C1=NC[C@H](Cc2ccccc2)N1CCCCc1ccccc1`, the half-maximal activity concentration (AC50) in test [5] is 8.01 µM (active); in [6], 4.5 µM (active); in test [7] it was 58.9 µM (active).

Take `C[C@@H]1CN([C@H](C)CO)C(=O)Cc2cc(NC(=O)Nc3ccc(C(F)(F)F)cc3)ccc2O[C@@H]1CN(C)Cc1ccncc1`: in test [8], the AC50 is 2.05 µM (active). Consider `Cc1noc(C)c1S(=O)(=O)N(C)C[C@@H]1Oc2ccc(NC(=O)NC3CCCCC3)cc2CC(=O)N([C@@H](C)CO)C[C@@H]1C`, for which the figures for the AC50 in test [2], in test [3] and in test [4] were 9.11 µM (active), 5.37 µM (active) and 7.36 µM (active), respectively.

For `Cc1ccc(N2CCN(C(=O)N3CCCC3)CC2)cc1Cl`, the AC50 in test [9] was 27.2 µM (active).

For the molecule `Cc1cc(C(=O)COc2ccccc2C(N)=O)c(C)n1C`, the IC50 in the test with H9c2 was > 79 µM (inactive). With `C[C@H](CO)N1C[C@H](C)[C@H](CN(C)Cc2ccc(Cl)c(Cl)c2)Oc2c(NC(=O)CCCCCC(=O)Nc3ccccc3N)cccc2C1=O`, in [8], the AC50 is 1.65 µM (active). On to `COc1cnn(-c2ccccc2)c(=O)c1SCc1ccc(Cl)cc1Cl`, for which the concentration for half-maximal inhibition (IC50) in test [1] was 1.26 µM (not active). Regarding `C[C@H](CO)N1C[C@H](C)[C@@H](CN(C)Cc2ccc(Cl)c(Cl)c2)Oc2c(NC(=O)c3ccncc3)cccc2C1=O`, in test [8], the AC50 is 0.08 µM (active). With `O=C1CSC(c2ccccn2)N1c1ccccc1` (configuration not stated), in test [9], the AC50 is 0.225 µM (active).

One may read the IC50 as the concentration that gives 50% inhibition. Usually AC50 stands for the concentration at which the activity in the assay is half-maximal. Broadly, the EC50 is the midpoint of the concentration-response curve.
